“Also recorded” adds a separate entry of the source.
Columns and labels:
cortical neurons = conditions: cited from earlier work
[1] = in comparison to 360° laser trabeculoplasty; cited from earlier work
RGC [2] = conditions: rat, in vivo; cited from earlier work
[3] = test system: retina autofluorescence (NADH, FAD); conditions: intravitreal administration
From the text: Detection of FCCP-induced retinal metabolic changes in vivo in a mouse eye.

retinal neurons = conditions: in vitro; cited from earlier work
RGCs [4] = conditions: cited from earlier work
[5] = test system: ROS production in the retina; assay: ROS production in mouse retina in vivo visualized with DHE; conditions: intravitreal; vs vehicle/control eye
Experimental: FIG. 12B. The effects of rotenone on ROS production in mouse retina in vivo. ROS production visualized with DHE (dihydroethidium). DHE is a non-fluorescent agent, reacting with ROS intracellularly to produce a fluorescent oxidative product which can be detected. Rotenone (50 uM, 1 ul) was intravitreally injected into the one eye (C57) and the same volume of vehicle (saline) injected into the contralateral eye. DHE (1 ul) was then injected intravitreally and both eyes imaged to detect ROS production using a SLO machine.
FIG. 12C. The effects of PMA in producing ROS in mouse retina in vivo. PMA (50 ug/ml, 1 ul) was injected intravitreally into the one eye and saline (1 ul) into the contralateral eye. DHE (1 ul) was simultaneously injected for detecting ROS production.
FIG. 12D. The effects of Aβ25-35 on ROS production in vivo. DHE was intravitreally injected into the both eyes of a mouse to detect ROS production.

[6] = test system: mitochondrial membrane potential in the retina; assay: Mitochondrial membrane potential (MMP) in mouse eye in vivo, Rho123 fluorescence; conditions: intravitreal 20 uM, 1 ul; vs vehicle control
Experimental: FIG. 11B. Early investigations show the effects of intravitreal rotenone on mitochondrial membrane potential (MMP) in a mouse eye in vivo.
FIG. 11C. Using the same analysis, we looked at the effects of Aβ25-35 on MMP in vivo in a mouse eye. Rho123 is a fluorescent probe, used to detect the changes in mitochondrial fluorescent density. […] The dashed line in C represents baseline fluorescence before Rho123 was injected

control cells = conditions: cited from earlier work
RGC [7] = conditions: previously established; cited from earlier work
RGC [8] = assay: Staurosporine (SSP)-induced RGC apoptosis model, time-lapse in vivo imaging; parameters: species or system rat
Experimental: For analysis of staurosporine-induced RGC apoptosis, 14 DA rats received 0.5 μg of intravitreal staurosporine (SSP) in 5 μl phosphate-buffered saline (PBS); both Sigma Aldrich UK, to induce RGC apoptosis as previously described (Cordeiro et al., 2004). Animals were imaged immediately for up to 6 hours, after which they were killed for histology.
Using a method the inventors have recently described, rats were given 2.5 μg of intravitreal Alexa Fluor 488 labelled annexin V in 5 μl PBS for identification of RGC apoptosis, 2 hours before in vivo imaging (Cordeiro et al., 2004). For mice, the inventors used 1 μl of a 0.25 mg/ml solution of IR-labelled annexin (Annexin-IR) in intravitreal injections as previously described (Schmitz-Valckenberg et al., 2008). […]
All rats had in vivo retinal imaging performed at regular and set intervals after experimental treatment, using a prototype Zeiss confocal scanning laser ophthalmoscope (cSLO), as previously described (Cordeiro et al., 2004; Maass et al., 2007). […] Colour and raw scatter plots of annexin and PI fluorescence intensity were constructed, so data could be analysed in a similar manner to data derived by in vitro FACS analysis. […] Fluorescence intensity counts derived from raw scatter plots were used to quantify each phase of cell death. […]

cortical astrocytes = conditions: 1 mM glutamate or 10 mM methyl-succinate; cited from earlier work
RGC [9] = conditions: topical application; cited from earlier work
[10] = human, in vivo; cited from earlier work
RGCs [11] = conditions: rat; cited from earlier work

For `C[C@]12CC[C@@H]3c4ccc(O)cc4CC[C@H]3[C@@H]1CC[C@@H]2O` [17β-estradiol], the “neuronal integrity and function” value (cortical neurons) is listed as “increased”.
In the case of `Brc1c(NC2=NCCN2)ccc2nccnc12` [Brimonidine], the visual field deterioration [1] is listed as “reduced” and the RGC survival (RGC [2]) is listed as “positive effect”.
With `N#CC(C#N)=NNc1ccc(OC(F)(F)F)cc1` [FCCP, Carbonylcyanide-p-trifluoromethoxy-phenylhydrazone] the “real time autofluorescence in the retina” value [3] was “increase”.
For `COc1ccc2[nH]cc(CCNC(C)=O)c2c1` [Melatonin], the “protection of retinal neurons” value (retinal neurons) is listed as “protected” and the “effect on RGCs in vivo” value (RGCs [4]) is listed as “neuroprotective effect”.
For `C=C(C)[C@H]1Cc2c(ccc3c2O[C@@H]2COc4cc(OC)c(OC)cc4[C@@H]2C3=O)O1` [Rotenone], the “ROS production in the retina (DHE fluorescence)” value [5] is listed as “stronger fluorescent signals of ROS production”, the “mitochondrial membrane depolarization (Rho123 signal)” value [6] is listed as “significant mitochondrial membrane depolarization” and the “ROS production (MitoSox)” value (control cells) is listed as “significant increase”.
For `CN[C@@H]1C[C@H]2O[C@@](C)([C@@H]1OC)n1c3ccccc3c3c4c(c5c6ccccc6n2c5c31)C(=O)NC4` [SSP, staurosporine], the “time point of maximal apoptosis” value (RGC [7]) is given as 2 h, the “cell death profile (phases) at time of peak apoptosis” value (RGC [8]; 2 h, co-localization scatter plot analysis) is given as “significantly more cells in the late phase of apoptosis; also recorded: significantly more RGCs in the phases of late apoptosis” and the “PI staining over time” value (RGC [8]; SSP-treated rat eye, time-lapse video over 5 hours) is given as “clear increase”.
In the case of `N[C@@H](CCC(=O)O)C(=O)O` [glutamate], the “slow progressive mitochondrial depolarization in response to Aβ 25-35” value (cortical astrocytes) is listed as “abolished almost completely”.
In the case of NGF: nerve growth factor, the RGC apoptosis (RGC [9]) is listed as “reducing” and the “functional effect in patients” value [10] is listed as “neuroprotective effects functionally”.
In the case of glatiramer acetate [Cop-1], the “activity on RGCs in vivo” value (RGCs [11]) is listed as “neuroprotective activity”.
